Holding throughout (assay type): functional
The subject of experiment [1] is Escherichia coli. In words: Antibacterial activity against Escherichia coli at 100 ug/mL after 48 hrs by cup-plate method.
Experiment [2] has as its system Macrophomina phaseolina. As to the kind of experiment: Antifungal activity against Rhizoctonia bataticola at 100 ug/mL after 48 hrs by cup-plate method.
The test system of experiment [3] is Macrophomina phaseolina. As to the kind of experiment: Antifungal activity against Rhizoctonia bataticola at 50 ug/mL after 48 hrs by cup-plate method. As to conditions: for zone of inhibition at 50 µg/mL: read-out: IZ.
Experiment [4] deals with Escherichia coli. As to the kind of experiment: Antibacterial activity against Escherichia coli at 50 ug/mL after 48 hrs by cup-plate method.
The subject of experiment [5] is Bacillus. In words: Antibacterial activity against […] at 25 ug/mL after 48 hrs by cup-plate method. As to conditions: for zone of inhibition at 25 µg/mL: read-out: IZ.
For experiment [6], the system named is Bacillus. As to the kind of experiment: Antibacterial activity against […] at 100 ug/mL after 48 hrs by cup-plate method.
Experiment [7] has as its system Aspergillus niger. In words: Antifungal activity against Aspergillus niger at 25 ug/mL after 48 hrs by cup-plate method. To be noted: for zone of inhibition at 25 µg/mL: read-out: IZ.
The test system of experiment [8] is Aspergillus niger. In words: Antifungal activity against Aspergillus niger at 50 ug/mL after 48 hrs by cup-plate method.
The subject of experiment [9] is Macrophomina phaseolina. As to the kind of experiment: Antifungal activity against Rhizoctonia bataticola at 25 ug/mL after 48 hrs by cup-plate method.
Experiment [10] deals with Bacillus. As to the kind of experiment: Antibacterial activity against […] at 50 ug/mL after 48 hrs by cup-plate method.
For experiment [11], the system named is Escherichia coli. As to the kind of experiment: Antibacterial activity against Escherichia coli at 25 ug/mL after 48 hrs by cup-plate method. As to conditions: for zone of inhibition at 25 µg/mL: read-out: IZ.
The subject of experiment [12] is Aspergillus niger. As to the kind of experiment: Antifungal activity against Aspergillus niger at 100 ug/mL after 48 hrs by cup-plate method.

The source made the active and inactive calls. No cut-off for these calls is given here.

For `Cc1ccc2c(CNc3ccc(Br)cc3)cc(=O)oc2c1`, the inhibition (in general, the change of the read-out against control, counted positive when it falls) at 100 µg/mL in the experiment on Escherichia coli [1] worked out at 64%; with Macrophomina phaseolina [2] it was 59%; in the experiment on Bacillus [6] it was 63%; in the experiment with Aspergillus niger [12], 55%. Also, the inhibition at 50 µg/mL in the experiment with Macrophomina phaseolina [3] was 35%; in the experiment with Escherichia coli [4], 35%; in the experiment on Aspergillus niger [8], 23%; in the experiment with Bacillus [10], 37%. In the experiment with Macrophomina phaseolina [3], the zone of inhibition at 50 µg/mL turned out to be 90 mm. Besides, the figures for the inhibition at 25 µg/mL in the experiment on Bacillus [5] and with Escherichia coli [11] were 21% and 13%, respectively. Also, the results for the zone of inhibition at 25 µg/mL with Bacillus [5] and with Escherichia coli [11] were 50 mm and 38 mm, respectively. For the same compound, the result in the experiment on Aspergillus niger [7] and in the experiment on Macrophomina phaseolina [9] was inactive.

As for `O=c1cc(COc2ccc(Br)cc2)c2ccc(Cl)cc2[nH]1`, the inhibition at 100 µg/mL in the experiment with Escherichia coli [1] came out at 50%; in the experiment with Macrophomina phaseolina [2], 54%; with Bacillus [6], 60%; in the experiment with Aspergillus niger [12] it was 60%. Further, the inhibition at 50 µg/mL in the experiment with Macrophomina phaseolina [3] was 31%; in the experiment on Escherichia coli [4], 30%; in the experiment with Aspergillus niger [8], 35%; in the experiment with Bacillus [10], 26%. Also, the zone of inhibition at 50 µg/mL in the experiment with Macrophomina phaseolina [3] was determined as 80 mm. For the same compound, the outcome in the experiment with Bacillus [5], with Macrophomina phaseolina [9] and in the experiment on Escherichia coli [11] was inactive. Besides, the inhibition at 25 µg/mL in the experiment with Aspergillus niger [7] was 18%. Moreover, the zone of inhibition at 25 µg/mL with Aspergillus niger [7] amounted to 46 mm.

As to `O=c1cc(COc2ccc(Cl)cc2)c2ccc(Cl)cc2[nH]1`, the inhibition at 100 µg/mL in the experiment with Escherichia coli [1] is 48%; in the experiment with Macrophomina phaseolina [2], 51%; in the experiment with Bacillus [6], 56%; in the experiment on Aspergillus niger [12], 50%. Besides, the inhibition at 50 µg/mL worked out at 35% in the experiment on Macrophomina phaseolina [3], 27% in the experiment on Escherichia coli [4], 21% in the experiment on Aspergillus niger [8] and 25% in the experiment on Bacillus [10]. For the same compound, the zone of inhibition at 50 µg/mL in the experiment on Macrophomina phaseolina [3] was determined as 78 mm. The outcome in the experiment with Bacillus [5], with Aspergillus niger [7], with Macrophomina phaseolina [9] and in the experiment with Escherichia coli [11] was inactive.

`Cc1ccc2c(COc3ccc(Br)cc3)cc(=O)oc2c1`: the inhibition at 100 µg/mL with Escherichia coli [1] was found to be 66%; with Macrophomina phaseolina [2], 57%; with Bacillus [6], 63%; with Aspergillus niger [12], 52%. Also, the inhibition at 50 µg/mL with Macrophomina phaseolina [3] amounted to 32%; with Escherichia coli [4], 37%; in the experiment on Aspergillus niger [8] it was 22%; in the experiment on Bacillus [10] it was 37%. Also, the zone of inhibition at 50 µg/mL with Macrophomina phaseolina [3] came out at 84 mm. Moreover, the inhibition at 25 µg/mL in the experiment with Bacillus [5] and in the experiment on Escherichia coli [11] was 20% each time. In addition, the zone of inhibition at 25 µg/mL with Bacillus [5] and with Escherichia coli [11] was 48 mm throughout. The result in the experiment with Aspergillus niger [7] and in the experiment on Macrophomina phaseolina [9] was inactive.

Regarding `COC1=CC(=O)C[C@@H](C)[C@]12Oc1c(Cl)c(OC)cc(OC)c1C2=O` [GRISEOFULVIN], the inhibition at 100 µg/mL in the experiment with Escherichia coli [1], with Macrophomina phaseolina [2], with Bacillus [6] and in the experiment with Aspergillus niger [12] was 100% in each case. The inhibition at 50 µg/mL in the experiment on Macrophomina phaseolina [3], in the experiment on Escherichia coli [4], in the experiment with Aspergillus niger [8] and with Bacillus [10] was 100% in each case. Further, the inhibition at 25 µg/mL in the experiment on Bacillus [5], with Aspergillus niger [7], with Macrophomina phaseolina [9] and in the experiment with Escherichia coli [11] was 100% each time.

`CN(C)C=O` [DIMETHYLFORMAMIDE]: the zone of inhibition at 100 µg/mL in the experiment on Escherichia coli [1] (read-out: IZ), in the experiment with Macrophomina phaseolina [2] (read-out: IZ), in the experiment with Bacillus [6] (read-out: IZ) and in the experiment with Aspergillus niger [12] (read-out: IZ) was 20 mm each time. For the same compound, in the experiment on Macrophomina phaseolina [3], the zone of inhibition at 50 µg/mL turned out to be 20 mm. Also, the zone of inhibition at 25 µg/mL in the experiment with Bacillus [5], in the experiment with Aspergillus niger [7] and with Escherichia coli [11] was 20 mm in each case.

The values above are taken from ChEMBL document CHEMBL1140196, “Synthesis and biological activities of some new fluorinated coumarins and 1-aza coumarins” (Eur J Med Chem, 2008).
